# From US3965180A, “4'-Fluoro-4-{[4-(phenyl)-4-alkoxy-cyclo-hexyl]amino}butyrophenones and the salts thereof” (The Upjohn Company, priority 1973, dated 1976)
# Structures can show the parent of a compound that is named as a salt.
# Legend:
# Assay type in all cases: in vivo
# [1] = tested on: mice; experiment: Chimney test (ability of mice to back up and out of a vertical glass cylinder within 30 seconds); conditions: Mus musculus, ip, intraperitoneal injection, dose at which 50% of the mice failed to back out within 30 seconds, read-out: ED50, Ch = chimney test
# Description: (§1) The free bases and acid addition salts of the novel compounds of Formula I are useful as central nervous system (CNS) depressants when administered to humans and animals.
# (§2) Tranquilizing effects of certain compounds of this invention are shown by the following tests in mice:
# Chimney test: [Med. Exp. 4, 145 (1961)]: The test determines the ability of mice to back up and out of a vertical glass cylinder within 30 seconds. At the effective dosage, 50% of the mice failed doing it.
# [2] = tested on: mice; experiment: Dish test (mice remaining in Petri dish for more than 3 minutes); conditions: Mus musculus, ip, 0.05 h, intraperitoneal injection, dose at which 50% of the mice remain in the dish more than 3 minutes, read-out: ED50, D = dish test
# Experimental: as §1, §2
# Dish test: Mice in Petri dishes (10 cm. diameter, 5 cm. high, partially embedded in wood shavings), climb out in a very short time, when not treated. Mice remaining in the dish for more than 3 minutes indicates tranquilization. ED50 equals the dose of test compound at which 50% of the mice remain in the dish.
# [3] = tested on: mice; experiment: Pedestal test (mice staying on the pedestal for more than 1 minute); conditions: Mus musculus, ip, 1 min, intraperitoneal injection, stay on pedestal for more than 1 minute, read-out: ED50, P = pedestal test
# Experimental: as §1, §2
# Pedestal test: The untreated mouse leaves a standard pedestal in less than a minute to climb back to the floor of the standard mouse box. Tranquilized mice will stay on the pedestal for more than 1 minute.
# [4] = tested on: mice; experiment: Nicotine antagonism test (nicotine salicylate 2 mg./kg.; (3) death); conditions: Mus musculus, ip, intraperitoneal injection 30 minutes before nicotine salicylate (2 mg./kg.), read-out: ED50, Ni = nicotine antagonism (3) test
# Experimental: as §2
# Nicotine antagonism test: Mice in a group of 6 are injected with the test compound. Thirty minutes later the mice including control (untreated) mice are injected with nicotine salicylate (2 mg./kg.). The control mice show overstimulation, i.e., (1) running convulsions followed by (2) tonic extensor fits; followed by (3) death.
SMILES,ED50 [1] [mg/kg],ED50 [2] [mg/kg],ED50 [3] [mg/kg],ED50 [4] [mg/kg]
CO[C@]1(c2ccc(F)cc2)CC[C@@H](NCCCC(=O)c2ccc(F)cc2)CC1 [4'-fluoro-4-{[4-cis-(p-fluorophenyl)-4-transmethoxycyclohexyl]amino}butyrophenone hydrohydrochloride (I)],8,1.6,2.5,3.2
CO[C@]1(c2ccc(C)cc2)CC[C@H](NCCCC(=O)c2ccc(F)cc2)CC1 [4'-fluoro-4-{[4-cis-methoxy-4-trans-(p-methylphenyl)cyclohexyl]amino}butyrophenone hydrochloride (I)],2.5,1.1,2,4.5
CO[C@]1(c2ccc(F)cc2)CC[C@H](NCCCC(=O)c2ccc(F)cc2)CC1 [4'-fluoro-4-{[4-trans-(p-fluorophenyl)-4-cis-methoxycyclohexyl]amino}butyrophenone hydrochloride (I)],2.5,0.09,1.3,0.4
